Like-named read-outs stand apart in the source and are kept apart here.
Legend:
Type in all cases: binding
[1] = molecular target: broad panel of kinases (Homo sapiens, UniProt P49759); settings: CLK1; 1 μM
[2] = molecular target: broad panel of kinases (Homo sapiens, UniProt P35916); settings: FLT4; 1 μM
[3] = molecular target: broad panel of kinases (Homo sapiens, UniProt P51813); settings: BMX; 1 μM
[4] = molecular target: broad panel of kinases (Homo sapiens, UniProt Q06418); settings: TYRO3; 1 μM
[5] = molecular target: broad panel of kinases (Homo sapiens, UniProt Q12851); settings: MAP4K2; 1 μM
[6] = molecular target: broad panel of kinases (Homo sapiens, UniProt P22607); settings: FGFR3; 1 μM
[7] = molecular target: broad panel of kinases (Homo sapiens, UniProt Q8WTQ7); settings: GRK7; 1 μM
[8] = molecular target: broad panel of kinases (Homo sapiens, UniProt P35968); settings: VEGFR2; 1 μM
[9] = molecular target: broad panel of kinases (Homo sapiens, UniProt O60331); settings: PIP5K1C; 1 μM
[10] = molecular target: broad panel of kinases (Homo sapiens, UniProt Q02750); settings: MEK1; 1 μM
[11] = molecular target: broad panel of kinases (Homo sapiens, UniProt Q13557); settings: CAMK2D; 1 μM
[12] = molecular target: broad panel of kinases (Homo sapiens, UniProt P08069); settings: IGF1R; 1 μM
[13] = molecular target: broad panel of kinases (Homo sapiens, UniProt O43283); settings: LZK; 1 μM
[14] = molecular target: broad panel of kinases (Homo sapiens, UniProt P16591); settings: FER; 1 μM
[15] = molecular target: broad panel of kinases (Homo sapiens, UniProt P10721, L576P); settings: KIT(L576P); 1 μM
[16] = molecular target: broad panel of kinases (Homo sapiens, UniProt Q96SB4); settings: SRPK1; 1 μM
[17] = molecular target: broad panel of kinases (Homo sapiens, UniProt Q00535); settings: CDK5; 1 μM
[18] = molecular target: broad panel of kinases (Homo sapiens, UniProt P22455); settings: FGFR4; 1 μM
[19] = molecular target: broad panel of kinases (Homo sapiens, UniProt O43683); settings: BUB1; 1 μM
[20] = molecular target: broad panel of kinases (Homo sapiens, UniProt P48729); settings: CSNK1A1; 1 μM
[21] = molecular target: broad panel of kinases (Homo sapiens, UniProt P29597); settings: 1 μM
[22] = molecular target: broad panel of kinases (Homo sapiens, UniProt Q99683); settings: ASK1; 1 μM
[23] = molecular target: broad panel of kinases (Homo sapiens, UniProt P49336); settings: CDK8; 1 μM
[24] = molecular target: broad panel of kinases (Homo sapiens, UniProt Q06187); settings: BTK; 1 μM
[25] = molecular target: broad panel of kinases (Homo sapiens, UniProt Q86Y07); settings: VRK2; 1 μM
[26] = molecular target: broad panel of kinases (Homo sapiens, UniProt Q2M2I8); settings: AAK1; 1 μM
[27] = molecular target: broad panel of kinases (Homo sapiens, UniProt P00519); settings: 1 μM
[28] = molecular target: broad panel of kinases (Homo sapiens, UniProt Q9UBE8); settings: NLK; 1 μM
[29] = molecular target: broad panel of kinases (Homo sapiens, UniProt Q9UHD2); settings: TBK1; 1 μM
[30] = molecular target: broad panel of kinases (Homo sapiens, UniProt O14730); settings: RIOK3; 1 μM
[31] = molecular target: broad panel of kinases (Homo sapiens, UniProt P53667); settings: LIMK1; 1 μM
[32] = molecular target: broad panel of kinases (Homo sapiens, UniProt P43405); settings: SYK; 1 μM
[33] = molecular target: broad panel of kinases (Homo sapiens, UniProt P14616); settings: INSRR; 1 μM
[34] = molecular target: broad panel of kinases (Homo sapiens, UniProt P00519, T315I); settings: 1 μM
[35] = molecular target: broad panel of kinases (Homo sapiens, UniProt O14578); settings: CIT; 1 μM
[36] = molecular target: broad panel of kinases (Homo sapiens, UniProt P10721, T670I/V559D); settings: KIT(V559D, T670I); 1 μM
[37] = molecular target: broad panel of kinases (Homo sapiens, UniProt O94804); settings: LOK; 1 μM

Chain of broad panel of kinases (Homo sapiens, UniProt P10721, T670I/V559D) (P10721 26-976 V559D/T670I limits assumed): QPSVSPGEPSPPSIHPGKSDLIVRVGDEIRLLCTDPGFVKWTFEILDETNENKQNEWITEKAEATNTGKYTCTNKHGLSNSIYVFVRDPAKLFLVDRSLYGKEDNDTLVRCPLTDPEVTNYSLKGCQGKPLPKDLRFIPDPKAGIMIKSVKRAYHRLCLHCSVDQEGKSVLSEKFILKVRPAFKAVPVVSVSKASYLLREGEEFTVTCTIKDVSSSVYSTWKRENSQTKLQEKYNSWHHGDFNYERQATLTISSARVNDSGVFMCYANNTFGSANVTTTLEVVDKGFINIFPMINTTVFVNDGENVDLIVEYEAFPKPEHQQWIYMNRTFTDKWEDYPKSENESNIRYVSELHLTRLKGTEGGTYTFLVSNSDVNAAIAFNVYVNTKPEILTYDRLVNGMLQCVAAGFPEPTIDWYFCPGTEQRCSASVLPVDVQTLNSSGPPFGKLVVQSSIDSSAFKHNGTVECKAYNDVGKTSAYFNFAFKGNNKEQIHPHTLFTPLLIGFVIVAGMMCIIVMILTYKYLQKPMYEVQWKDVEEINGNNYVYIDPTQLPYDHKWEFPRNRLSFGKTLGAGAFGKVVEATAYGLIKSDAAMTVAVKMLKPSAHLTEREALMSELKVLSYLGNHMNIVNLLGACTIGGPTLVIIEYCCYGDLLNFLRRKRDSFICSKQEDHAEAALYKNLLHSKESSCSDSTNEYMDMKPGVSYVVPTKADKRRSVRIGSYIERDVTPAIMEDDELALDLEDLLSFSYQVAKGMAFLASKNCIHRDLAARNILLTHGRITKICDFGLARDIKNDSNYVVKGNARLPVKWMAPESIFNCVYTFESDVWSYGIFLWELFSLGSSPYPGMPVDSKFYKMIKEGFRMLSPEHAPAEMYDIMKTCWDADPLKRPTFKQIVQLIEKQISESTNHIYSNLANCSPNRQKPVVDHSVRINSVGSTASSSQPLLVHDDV
Chain of broad panel of kinases (Homo sapiens, UniProt P35968) (P35968 20-1356 limits assumed): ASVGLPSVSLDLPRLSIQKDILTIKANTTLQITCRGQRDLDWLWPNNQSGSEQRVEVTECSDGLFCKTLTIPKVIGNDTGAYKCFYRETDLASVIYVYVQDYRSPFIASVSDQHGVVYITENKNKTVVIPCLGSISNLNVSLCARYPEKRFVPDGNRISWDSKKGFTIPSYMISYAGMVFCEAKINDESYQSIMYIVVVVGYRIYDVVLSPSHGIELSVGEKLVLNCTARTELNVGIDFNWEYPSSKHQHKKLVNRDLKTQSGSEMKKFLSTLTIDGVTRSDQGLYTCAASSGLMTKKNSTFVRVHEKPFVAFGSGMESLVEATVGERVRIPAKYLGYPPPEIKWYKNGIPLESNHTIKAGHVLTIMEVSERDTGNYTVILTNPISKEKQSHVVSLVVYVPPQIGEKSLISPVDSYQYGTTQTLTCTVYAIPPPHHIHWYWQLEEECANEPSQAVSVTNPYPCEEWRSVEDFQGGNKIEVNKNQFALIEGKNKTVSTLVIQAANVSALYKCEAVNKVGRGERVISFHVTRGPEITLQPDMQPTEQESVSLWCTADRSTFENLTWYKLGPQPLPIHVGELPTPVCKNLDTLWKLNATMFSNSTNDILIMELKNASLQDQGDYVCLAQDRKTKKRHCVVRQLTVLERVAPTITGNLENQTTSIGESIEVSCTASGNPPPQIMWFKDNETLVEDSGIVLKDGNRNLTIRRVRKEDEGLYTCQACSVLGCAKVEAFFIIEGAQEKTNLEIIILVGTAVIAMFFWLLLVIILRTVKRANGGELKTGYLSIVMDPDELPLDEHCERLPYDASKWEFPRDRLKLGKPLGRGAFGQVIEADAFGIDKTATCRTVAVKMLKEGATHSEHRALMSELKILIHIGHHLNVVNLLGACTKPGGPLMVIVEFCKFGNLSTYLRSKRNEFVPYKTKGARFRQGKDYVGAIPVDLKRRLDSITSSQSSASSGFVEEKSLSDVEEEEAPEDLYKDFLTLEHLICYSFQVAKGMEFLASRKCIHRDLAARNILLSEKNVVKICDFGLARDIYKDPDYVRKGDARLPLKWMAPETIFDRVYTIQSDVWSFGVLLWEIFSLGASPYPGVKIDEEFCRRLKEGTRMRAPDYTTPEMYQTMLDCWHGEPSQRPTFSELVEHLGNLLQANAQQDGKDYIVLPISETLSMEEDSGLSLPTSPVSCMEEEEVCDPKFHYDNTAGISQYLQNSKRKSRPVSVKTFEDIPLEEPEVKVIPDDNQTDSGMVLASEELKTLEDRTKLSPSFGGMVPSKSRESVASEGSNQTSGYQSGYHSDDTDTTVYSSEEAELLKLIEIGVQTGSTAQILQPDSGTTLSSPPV
Chain of broad panel of kinases (Homo sapiens, UniProt P22455) (P22455 22-802 limits assumed): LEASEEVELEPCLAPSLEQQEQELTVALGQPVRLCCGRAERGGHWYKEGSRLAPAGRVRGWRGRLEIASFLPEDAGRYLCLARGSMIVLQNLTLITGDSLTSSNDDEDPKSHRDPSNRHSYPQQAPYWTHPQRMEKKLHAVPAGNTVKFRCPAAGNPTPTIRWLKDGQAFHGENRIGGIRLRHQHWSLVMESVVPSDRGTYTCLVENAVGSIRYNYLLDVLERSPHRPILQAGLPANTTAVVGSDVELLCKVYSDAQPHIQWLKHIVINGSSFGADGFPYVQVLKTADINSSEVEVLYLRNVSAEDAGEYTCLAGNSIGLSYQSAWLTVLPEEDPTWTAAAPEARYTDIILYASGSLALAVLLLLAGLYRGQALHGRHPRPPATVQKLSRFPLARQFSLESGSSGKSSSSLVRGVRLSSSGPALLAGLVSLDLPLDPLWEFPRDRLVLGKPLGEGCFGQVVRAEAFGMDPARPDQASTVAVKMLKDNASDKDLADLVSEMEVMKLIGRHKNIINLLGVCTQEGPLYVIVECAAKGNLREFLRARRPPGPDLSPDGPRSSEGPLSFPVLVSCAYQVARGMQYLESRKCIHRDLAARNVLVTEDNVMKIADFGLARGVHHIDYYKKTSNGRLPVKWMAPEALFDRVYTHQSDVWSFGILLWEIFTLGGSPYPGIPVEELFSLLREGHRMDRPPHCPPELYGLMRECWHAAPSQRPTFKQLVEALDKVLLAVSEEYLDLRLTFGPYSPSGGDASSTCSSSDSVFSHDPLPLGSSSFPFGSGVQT
Chain of broad panel of kinases (Homo sapiens, UniProt P48729) (P48729 2-337 limits assumed): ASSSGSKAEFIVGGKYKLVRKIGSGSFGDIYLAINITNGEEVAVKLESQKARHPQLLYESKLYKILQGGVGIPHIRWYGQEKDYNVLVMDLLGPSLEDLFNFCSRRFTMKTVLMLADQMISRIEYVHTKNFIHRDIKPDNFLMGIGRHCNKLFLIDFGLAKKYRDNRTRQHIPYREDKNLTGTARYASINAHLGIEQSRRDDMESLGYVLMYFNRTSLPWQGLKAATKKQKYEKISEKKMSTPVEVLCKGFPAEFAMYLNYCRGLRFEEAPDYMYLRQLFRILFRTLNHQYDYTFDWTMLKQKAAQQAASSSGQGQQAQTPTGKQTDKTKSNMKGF
Chain of broad panel of kinases (Homo sapiens, UniProt P08069) (P08069 31-736 limits assumed): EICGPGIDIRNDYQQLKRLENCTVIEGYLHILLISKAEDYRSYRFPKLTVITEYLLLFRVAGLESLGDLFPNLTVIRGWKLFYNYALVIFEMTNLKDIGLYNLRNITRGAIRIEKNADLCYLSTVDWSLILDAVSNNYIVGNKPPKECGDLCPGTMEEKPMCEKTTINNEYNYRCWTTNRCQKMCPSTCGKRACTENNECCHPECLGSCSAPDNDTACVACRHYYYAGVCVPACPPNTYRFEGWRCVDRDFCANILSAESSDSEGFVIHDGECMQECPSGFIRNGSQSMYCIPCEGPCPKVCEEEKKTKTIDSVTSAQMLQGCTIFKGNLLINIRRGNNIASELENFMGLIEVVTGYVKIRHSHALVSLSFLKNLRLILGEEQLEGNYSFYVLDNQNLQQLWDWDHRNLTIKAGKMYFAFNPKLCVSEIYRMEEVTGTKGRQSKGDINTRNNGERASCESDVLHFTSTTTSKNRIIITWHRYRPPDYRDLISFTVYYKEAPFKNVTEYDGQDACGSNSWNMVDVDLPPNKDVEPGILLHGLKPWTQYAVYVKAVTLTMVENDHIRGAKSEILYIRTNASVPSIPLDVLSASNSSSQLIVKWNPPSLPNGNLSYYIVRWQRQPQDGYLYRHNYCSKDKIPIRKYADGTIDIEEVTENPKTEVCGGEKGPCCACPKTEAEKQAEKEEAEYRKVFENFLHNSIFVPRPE
Chain of broad panel of kinases (Homo sapiens, UniProt P08069) (P08069 741-1367 limits assumed): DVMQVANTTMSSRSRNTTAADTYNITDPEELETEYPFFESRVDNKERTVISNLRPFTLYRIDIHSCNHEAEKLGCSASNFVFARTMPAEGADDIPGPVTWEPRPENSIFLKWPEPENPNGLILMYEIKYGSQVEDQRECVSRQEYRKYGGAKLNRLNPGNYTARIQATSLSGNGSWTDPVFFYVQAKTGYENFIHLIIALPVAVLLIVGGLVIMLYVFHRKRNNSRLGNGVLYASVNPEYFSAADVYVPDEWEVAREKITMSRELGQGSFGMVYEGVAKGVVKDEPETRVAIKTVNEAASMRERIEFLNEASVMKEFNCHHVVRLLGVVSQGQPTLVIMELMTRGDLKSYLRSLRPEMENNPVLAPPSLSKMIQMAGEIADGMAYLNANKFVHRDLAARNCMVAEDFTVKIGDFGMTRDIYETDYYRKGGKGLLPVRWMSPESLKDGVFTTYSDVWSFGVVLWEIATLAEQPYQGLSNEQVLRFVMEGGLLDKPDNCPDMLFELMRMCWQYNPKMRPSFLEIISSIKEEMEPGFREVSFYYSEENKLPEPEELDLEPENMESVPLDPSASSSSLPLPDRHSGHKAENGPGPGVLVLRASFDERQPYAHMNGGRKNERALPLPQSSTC
Chain of broad panel of kinases (Homo sapiens, UniProt P10721, L576P) (P10721 26-976 L576P limits assumed): as the sequence (P10721 26-976 V559D/T670I limits assumed) above, with D534V, L551P, I645T counted along it

| SMILES | percent of control binding remaining (lower = stronger binding) [1] [%] | percent of control binding remaining (lower = stronger binding) [2] [%] | percent of control binding remaining (lower = stronger binding) [3] [%] | percent of control binding remaining (lower = stronger binding) [4] [%] | percent of control binding remaining (lower = stronger binding) [5] [%] | percent of control binding remaining (lower = stronger binding) [7] [%] | percent of control binding remaining (lower = stronger binding) [8] [%] | percent of control binding remaining (lower = stronger binding) [9] [%] | percent of control binding remaining (lower = stronger binding) [10] [%] | percent of control binding remaining (lower = stronger binding) [11] [%] | percent of control binding remaining (lower = stronger binding) [12] [%] | percent of control binding remaining (lower = stronger binding) [13] [%] | percent of control binding remaining (lower = stronger binding) [14] [%] | percent of control binding remaining (lower = stronger binding) [15] [%] | percent of control binding remaining (lower = stronger binding) [16] [%] | percent of control binding remaining (lower = stronger binding) [17] [%] | percent of control binding remaining (lower = stronger binding) [18] [%] | percent of control binding remaining (lower = stronger binding) [19] [%] | percent of control binding remaining (lower = stronger binding) [20] [%] | percent of control binding remaining (lower = stronger binding) ([21]; TYK2(JH1domain-catalytic)) [%] | further results |
| --- | --- | --- | --- | --- | --- | --- | --- | --- | --- | --- | --- | --- | --- | --- | --- | --- | --- | --- | --- | --- | --- |
| C=CC(=O)N1CC[C@H](Nc2nc(CN3CCOCC3)cc(Nc3ncc(C(=O)Nc4c(C)cccc4C)s3)n2)C1 [Example I-2] | 92 | 95 | 3.6 | 41 | 87 | 97 | 100 | 99 | 67 | 91 | 100 | 97 | 100 | 0 | 91 | 100 | 100 | 85 | 100 | 89 | percent of control binding remaining (lower = stronger binding) [6]: 99%; percent of control binding remaining (lower = stronger binding) ([21]; TYK2(JH2domain-pseudokinase)): 28%; percent of control binding remaining (lower = stronger binding) [22]: 96%; percent of control binding remaining (lower = stronger binding) [23]: 93%; percent of control binding remaining (lower = stronger binding) [24]: 0%; percent of control binding remaining (lower = stronger binding) [25]: 94%; percent of control binding remaining (lower = stronger binding) [26]: 97%; percent of control binding remaining (lower = stronger binding) ([27]; ABL1-nonphosphorylated): 0.05%; percent of control binding remaining (lower = stronger binding) ([27]; ABL1-phosphorylated): 0%; percent of control binding remaining (lower = stronger binding) [28]: 11%; percent of control binding remaining (lower = stronger binding) [29]: 89%; percent of control binding remaining (lower = stronger binding) [30]: 98%; percent of control binding remaining (lower = stronger binding) [31]: 52%; percent of control binding remaining (lower = stronger binding) [32]: 86%; percent of control binding remaining (lower = stronger binding) [33]: 96%; percent of control binding remaining (lower = stronger binding) ([34]; ABL1(T315I)-nonphosphorylated): 95%; percent of control binding remaining (lower = stronger binding) ([34]; ABL1(T315I)-phosphorylated): 69%; percent of control binding remaining (lower = stronger binding) [35]: 100%; percent of control binding remaining (lower = stronger binding) [36]: 100%; percent of control binding remaining (lower = stronger binding) [37]: 96% |
| C=CC(=O)N1CC[C@H](Nc2nccc(Nc3ncc(C(=O)Nc4c(C)cccc4C)s3)n2)C1 [Example I-3] | 100 | 100 | 4.9 | 41 | 91 | 96 | 100 | 65 | 100 | 92 | 100 | 88 | 99 | 0 | 96 | 100 | 100 | 68 | 100 | 91 | % change compared to control [6]: 100%; percent of control binding remaining (lower = stronger binding) ([21]; TYK2(JH2domain-pseudokinase)): 26%; percent of control binding remaining (lower = stronger binding) [22]: 91%; percent of control binding remaining (lower = stronger binding) [23]: 98%; percent of control binding remaining (lower = stronger binding) [24]: 0.05%; percent of control binding remaining (lower = stronger binding) [25]: 70%; percent of control binding remaining (lower = stronger binding) [26]: 100%; % change compared to control ([27]; ABL1-nonphosphorylated): 0.1%; % change compared to control ([27]; ABL1-phosphorylated): 0%; percent of control binding remaining (lower = stronger binding) [28]: 9.4%; percent of control binding remaining (lower = stronger binding) [29]: 94%; percent of control binding remaining (lower = stronger binding) [30]: 90%; percent of control binding remaining (lower = stronger binding) [31]: 25%; percent of control binding remaining (lower = stronger binding) [32]: 81%; percent of control binding remaining (lower = stronger binding) [33]: 100%; % change compared to control ([34]; ABL1(T315I)-nonphosphorylated): 100%; % change compared to control ([34]; ABL1(T315I)-phosphorylated): 70%; percent of control binding remaining (lower = stronger binding) [35]: 88%; percent of control binding remaining (lower = stronger binding) [36]: 100%; percent of control binding remaining (lower = stronger binding) [37]: 97% |
